Literature values, collected in patent US20070275060A1, “Extended release solid pharmaceutical composition containing carbidopa and levodopa” (OSMOTICA COSTA RICA SOCIEDAD ANONIMA, priority 2005, published 2007).

Conditions: orally administered

In the case of `N[C@@H](Cc1ccc(O)c(O)c1)C(=O)O` [LD], the “time of peak concentrations” value is given as 30 to 120 min.
